SMILES strings stand for the structures. “And” between values parts separate entries of the source, which are not always exact repeats. Equal values may be shown once.

For 29 molecules, normalised response and normalised viability results are on record in the supplement of paper PMC4862054.

Common to all, as to details: incubation time: 72 h
The test system of test [1] is DU-4475. Kind of test: normalised response (% of control), CellTiter-Glo; higher = more viable cells (100 = DMSO, 0 = benzethonium chloride kill control). In outline: (§1)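 Two readouts were taken after 72 h: CellTox Green fluorescence (485/520 nm) first, then CellTiter-Glo luminescence after 10 min at room temperature. Breast cancer cell lines had been seeded as 20 µl suspension into 384-well plates holding compound at 5 concentrations in 10-fold steps across a compound-specific 10,000-fold range. Each value is a normalised signal at a single concentration, with plates scaled to 0.1 % DMSO (100) and a positive kill control (0).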
For orientation: In ATP-based viability assays light output follows the ATP content of the culture.

Test [2] has as its system MDA-MB-453. The description is as above. In outline:
as §1

In test [3] the test system is MDA-MB-231. The description is as above. In outline:
as §1

For test [4], the system named is Hs578T. The description is as above. In outline:
as §1

Test [5] deals with HCC1143. The description is as above. The essentials:
as §1

Test [6] concerns BT-474. Described as above. In outline: as §1
Test [7] concerns CAL-120. The description is as above. In outline:
as §1

Test [8] has as its system HCC1937. The test is described as above. The essentials:
as §1

In test [9] the test system is HDQ-P1. The test is described as above. The essentials:
as §1

Test [10] concerns MFM-223. The test is described as above. In outline: as §1
Test [11] deals with HCC1599. The test is described as above. In outline: as §1
In test [12] the test system is DU-4475. Described as above. The essentials:
as §1
The source holds these as a separate data set.

Test [13] has as its system CAL-85-1. Described as above. The essentials: as §1
Test [14] concerns MDA-MB-453. As to the kind of experiment: normalised viability (% of control), CellTiter-Blue; higher = more viable cells (about 100 = DMSO control). As to the method: (§2)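 DSRT, CellTiter-Blue viability, 72 h incubation. Signal is normalised to DMSO and benzethonium chloride controls. Value is the normalised response at dose 9.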
In general terms: The colour change of resazurin is a common sign of viable cells or microbes.

The test system of test [15] is CAL-148. The test is described as above. As to the method: as §2
For test [16], the system named is CAL-51. The description is as above. As to the method:
as §2

The subject of test [17] is HDQ-P1. The description is as above. As to the method: as §2
In test [18] the test system is DU-4475. The test is described as above. As to the method: as §2
Test [19] deals with CAL-85-1. The description is as above. As to the method: as §2

Molecule `Cc1c(N)nc([C@H](CC(N)=O)NC[C@H](N)C(N)=O)nc1C(=O)N[C@H](C(=O)N[C@H](C)[C@@H](O)[C@H](C)C(=O)N[C@H](C(=O)NCCc1nc(-c2nc(C(=O)NCCC[S+](C)C)cs2)cs1)[C@@H](C)O)[C@@H](OC1OC(CO)C(O)C(O)C1OC1OC(CO)C(O)C(OC(N)=O)C1O)c1cnc[nH]1` (stereo not given in full) [Bleomycin] (1000 nM) showed a normalised response in test [1] of 92.1%.

Consider `Cc1c(N)nc([C@H](CC(N)=O)NC[C@H](N)C(N)=O)nc1C(=O)N[C@H](C(=O)N[C@H](C)[C@@H](O)[C@H](C)C(=O)N[C@H](C(=O)NCCc1nc(-c2nc(C(=O)NCCC[S+](C)C)cs2)cs1)[C@@H](C)O)[C@@H](OC1OC(CO)C(O)C(O)C1OC1OC(CO)C(O)C(OC(N)=O)C1O)c1cnc[nH]1` (stereo not given in full) [Bleomycin] (10000 nM), for which the normalised response is 124% in test [2]; 74.8% in [3]; 69.6% in test [4]; 48.5% in test [5]; 65.3% in test [6]; 80.9% in test [7]. The normalised response in [8] is 45.8%; in test [9] it was 78.5%; in test [10], 108%; in [11] it was 88.7%; in [12], 78.9%; in test [13], 64.3%. The normalised viability in [14] came to 94.2%; in test [15], 82.8%; in [16], 51.7%; in test [17] it was 64.7%; in test [18], 98.7%; in test [19] it was 96.9%.

For `Cc1cc2c(F)c(Oc3ncnn4cc(OC[C@@H](C)O)c(C)c34)ccc2[nH]1` [Brivanib] (100 nM), in [1], the normalised response worked out at 101%.

`Cc1cc2c(F)c(Oc3ncnn4cc(OC[C@@H](C)O)c(C)c34)ccc2[nH]1` [Brivanib] (1000 nM): the normalised response is 108% in test [2]; 104% in [3]; 101% in test [4]; 100% in test [5]; 108% in test [6]; 112% in [7]. Besides, the normalised response in test [8] was 95.1%; in [9], 97.7%; in [10], 110%; in test [11], 104%; in test [12], 103%; in test [13] it was 93.4%. Also, the normalised viability in test [14] stood at 99.1%; in [15], 86.8%; in test [16], 101%; in test [17] it was 117%; in test [18], 107%; in test [19] it was 86.9%.

In turn, `CCCCCOC(=O)Nc1nc(=O)n([C@@H]2O[C@H](C)[C@@H](O)[C@H]2O)cc1F` [Capecitabine] (1000 nM) came in with a normalised response in test [1] of 98.6%.

Consider `CCCCCOC(=O)Nc1nc(=O)n([C@@H]2O[C@H](C)[C@@H](O)[C@H]2O)cc1F` [Capecitabine] (10000 nM), for which the normalised response in [2] stood at 103%; in test [3], 100%; in test [4], 105%; in test [5], 92.8%; in [6], 95.3%; in test [7] it was 98.5%. Besides, the normalised response in [8] was determined as 107%; in test [9], 81.3%; in test [10] it was 102%; in [11], 90.4%; in [12], 90.7%; in test [13], 56%. Further, the normalised viability in [15] was 75.5% and 97.8%; in test [16] it was 88.9% and 91.6%; in test [17], 105% and 87.3%; in [18], 88.5% and 90.4%.

In turn, `CC(C)C[C@H](NC(=O)[C@H](CCc1ccccc1)NC(=O)CN1CCOCC1)C(=O)N[C@@H](Cc1ccccc1)C(=O)N[C@@H](CC(C)C)C(=O)[C@@]1(C)CO1` [Carfilzomib] (100 nM) registered a normalised response in test [1] of 14.6%.

As for `CC(C)C[C@H](NC(=O)[C@H](CCc1ccccc1)NC(=O)CN1CCOCC1)C(=O)N[C@@H](Cc1ccccc1)C(=O)N[C@@H](CC(C)C)C(=O)[C@@]1(C)CO1` [Carfilzomib] (1000 nM), the normalised response is 14.3% in test [2]; 0.28% in test [3]; 0.58% in [4]; 5.78% in [5]; 6.38% in test [6]; 1.88% in test [7]. The normalised response in test [8] worked out at 2.47%; in [9] it was 0.05%; in test [10], 6.19%; in test [11], 8.99%; in test [12], 7.95%; in test [13], 1.03%. The normalised viability was 12.3% in [14]; 2.83% in test [15]; 1.6% in test [16]; 0.68% in test [17]; 2.97% in [18]; 2.67% in [19].

On to `Nc1nc(Cl)nc2c1ncn2[C@@H]1O[C@H](CO)[C@@H](O)[C@@H]1F` [Clofarabine] (1000 nM), for which the normalised response in test [1] stood at 70.9%.

Take `Nc1nc(Cl)nc2c1ncn2[C@@H]1O[C@H](CO)[C@@H](O)[C@@H]1F` [Clofarabine] (10000 nM): the normalised response in test [2] is 75.3%; in [3], 73%; in [4], 68.2%; in [5] it was 40.3%; in test [6], 66.3%; in [7] it was 69.8%. Besides, the normalised response stood at 84.2% in test [8]; 73.7% in [9]; 92.3% in test [10]; 29.1% in [11]; 49.3% in test [12]; 35.4% in test [13]. Moreover, the normalised viability in test [14] came to 41.2%; in test [15], 35.5%; in test [16], 12.4%; in test [17], 91.7%; in [18], 14%; in test [19], 51.2%.

Turning to `CCN(CC)CCOc1ccc(C(=C(Cl)c2ccccc2)c2ccccc2)cc1` [Clomifene] (1000 nM), the normalised response in [1] stood at 97.4%.

As to `CCN(CC)CCOc1ccc(C(=C(Cl)c2ccccc2)c2ccccc2)cc1` [Clomifene] (10000 nM), the normalised response amounted to 14.7% in test [2]; 4.7% in test [3]; 26.6% in test [4]; 95.4% in [5]; 8.15% in test [6]; 90.2% in test [7]. The normalised response in [8] is 10.1%; in test [9], 82.1%; in test [10], 26.5%; in [11] it was 4.3%; in test [12], 44.1%; in test [13], 44.9%. The normalised viability is 7.39% in test [14]; 93.4% in [15]; 84.7% in [16]; 38.8% in test [17]; 48.2% in test [18]; 42.8% in test [19].

Regarding `C[C@@H]1C[C@H]2[C@@H]3CCC4=CC(=O)C=C[C@]4(C)[C@@]3(F)[C@@H](O)C[C@]2(C)[C@@]1(O)C(=O)CO` [Dexamethasone] (1000 nM), the normalised response in test [1] amounted to 96.2%.

In test [1], `CC(C)C(=O)Nc1ccc([N+](=O)[O-])c(C(F)(F)F)c1` [Flutamide] (1000 nM) had a normalised response of 95.9%.

On to `COc1cc2c(Oc3ccc(NC(=O)C4(C(=O)Nc5ccc(F)cc5)CC4)cc3F)ccnc2cc1OCCCN1CCOCC1` [Foretinib] (100 nM), for which, in test [1], the normalised response was 99.9%.

The molecule `NC(=O)NO` [Hydroxyurea] (10000 nM) gave a normalised response in test [1] of 100%.

For the molecule `O=NN(CCCl)C(=O)NC1CCCCC1` [Lomustine] (1000 nM), the normalised response in test [1] was determined as 99.2%.

Molecule `O=C(O)CC[C@H]1CC[C@@](c2cc(F)ccc2F)(S(=O)(=O)c2ccc(Cl)cc2)CC1` [MK-0752] (100 nM) had a normalised response in test [1] of 99.2%.

As for `NC1(c2ccc(-c3nc4ccn5c(=O)[nH]nc5c4cc3-c3ccccc3)cc2)CCC1` [MK-2206] (100 nM), the normalised response in test [1] is 97.5%.

Turning to `NC(=O)c1cccc2cn(-c3ccc([C@@H]4CCCNC4)cc3)nc12` [MK-4827] (1000 nM), the normalised response in test [1] was found to be 86%.

The molecule `O=C(c1cc(Cc2n[nH]c(=O)c3ccccc23)ccc1F)N1CCN(C(=O)C2CC2)CC1` [Olaparib] (1000 nM) gave a normalised response in [1] of 92.5%.

Take `CO[C@H](C(=O)[C@@H](O)[C@@H](C)O)[C@@H]1Cc2cc3cc(O[C@H]4C[C@@H](O[C@@H]5C[C@@H](O)[C@H](O)[C@@H](C)O5)[C@H](O)[C@@H](C)O4)c(C)c(O)c3c(O)c2C(=O)[C@H]1O[C@H]1C[C@@H](O[C@@H]2C[C@@H](O)[C@@H](O[C@@H]3C[C@](C)(O)[C@H](O)[C@@H](C)O3)[C@@H](C)O2)[C@H](O)[C@@H](C)O1` [Plicamycin] (1000 nM): the normalised response in test [1] was determined as 99.2%.

The molecule `C[C@]12C=CC(=O)C=C1CC[C@@H]1[C@@H]2C(=O)C[C@@]2(C)[C@H]1CC[C@]2(O)C(=O)CO` [Prednisone] (1000 nM) had a normalised response in test [1] of 99%.

Take `CO[C@H]1C[C@@H]2CC[C@@H](C)[C@@](O)(O2)C(=O)C(=O)N2CCCC[C@H]2C(=O)O[C@H]([C@H](C)C[C@@H]2CC[C@@H](O)[C@H](OC)C2)CC(=O)[C@H](C)/C=C(\C)[C@@H](O)[C@@H](OC)C(=O)[C@H](C)C[C@H](C)/C=C/C=C/C=C/1C` [Sirolimus] (100 nM): the normalised response was determined as 53.2% in test [2]; 81.2% in [3]; 68.8% in test [4]; 62.4% in [5]; 78.8% in [6]; 64.5% in test [7]. For the same molecule, the normalised response in test [8] amounted to 66.9%; in test [9] it was 73.4%; in [10], 64.9%; in [11] it was 95.8%; in test [12], 72.8%; in test [13], 60.5%.

Turning to `CN1CCN(c2nc(C3=C(c4c[nH]c5ccccc45)C(=O)NC3=O)c3ccccc3n2)CC1` [Sotrastaurin] (1000 nM), the normalised response in [1] turned out to be 86.4%.

In the case of `COc1cc2c(N3CCN(C(=O)Nc4ccc(OC(C)C)cc4)CC3)ncnc2cc1OCCCN1CCCCC1` [Tandutinib] (100 nM), the normalised response in test [1] worked out at 99.7%.

As to `C[C@@H](C(=O)O)c1ccc(-c2ccccc2)c(F)c1` [Tarenflurbil] (1000 nM), in test [1], the normalised response worked out at 94.6%.

Molecule `Cn1nnc2c(C(N)=O)ncn2c1=O` [Temozolomide] (1000 nM) showed a normalised response in test [1] of 95%.

Turning to `CC[C@@H]1C(=O)N(C)c2cnc(Nc3ccc(C(=O)N[C@H]4CC[C@H](N5CCN(CC6CC6)CC5)CC4)cc3OC)nc2N1C(C)C` [Volasertib] (100 nM), the normalised response in test [1] stood at 49.1%.
